Results from paper PMC6520522, “In vitro and in vivo Metabolism of a Potent Inhibitor of Soluble Epoxide Hydrolase, 1-(1-Propionylpiperidin-4-yl)-3-(4-(trifluoromethoxy)phenyl)urea” (Frontiers in Pharmacology, 2019).

Experiments:
[1] = Blood pharmacokinetics of TPPU and its metabolites after single oral dose in rats; format: in vivo
Method: (§1) Healthy male rats (Sprague Dawley, n = 4) were housed in temperature-controlled housing with ad libitum standard chow and drinking water. Each rat received TPPU (dissolved in 0.5 mL PEG400) at a dose of 10 mg/kg by oral gavage in order to generate significant amounts of metabolites while corresponding to previous efficacious concentration doses. Both blood and urine samples were collected. Blood samples (10 μL) at time points of 0 (before dosing), 0.25, 0.5, 1, 2, 4, 8, 12, 24, 48, and 72 h post dose were collected from the tail vein. Collected blood samples were transferred to Eppendorf tubes containing 90 μL of EDTA solution (0.1% EDTA and 0.1% acetic acid) and were immediately shaken to avoid blood coagulation. The urine and feces samples were passively collected at the time points of 8, 12, 24, 48, and 72 h post dose. TAPU (10 μL) of 1 μM in methanol was added in each blood and urine sample as an internal standard solution. The blood sample extraction was performed with 200 μL ethyl acetate by liquid-liquid extraction. The representative urine samples were subjected to protein precipitation prior to analysis of TPPU and Phase I metabolites. Briefly, urine (10 μL) was treated with 50 μL acetonitrile. After vortex mixing and centrifugation, the supernatant was collected. The feces samples (50–100 mg) were extracted using 600 μL extraction solution (MeOH: EA = 1:1). The mixtures were kept at −20°C overnight to give efficient extraction of TPPU and its metabolites. On day 2, after vortex mixing and centrifugation, the supernatant was collected. The remaining residue was extracted an additional time with 300 μL extraction solution, and the supernatant was combined after centrifugation. The collected supernatants were dried using a speed vacuum concentrator and reconstituted in 50 μL of 100 nM CUDA solution in methanol. In addition, urine (10 μL) was diluted with water (50 μL) and then subjected to analysis of glucuronide or sulfate conjugates.
(§2) LC-MS/MS analysis was conducted on an Agilent SL 1200 series LC system (Agilent, Palo Alto, CA) connected to a 4,000 Qtrap mass spectrometer (Applied Biosystems Instrument Corporation, Foster City, CA) with Turbo V ion source. Liquid chromatography was performed on a Kinetex® C18 column (100 × 2.1 mm, 1.7 μm). Three μL solution was injected onto the column held at 45°C for analysis. Mobile phase A and B were water with 0.1% acetic acid and acetonitrile with 0.1% acetic acid, respectively. The LC flow rate was 300 μL/min.
(§3) The mass spectrometer was operated in both negative and positive modes. Three different scan types were employed to perform mass spectrometry analysis, including product ion scan, precursor ion scan (optimized parameters in Table S4) and MRM scan (optimized parameters in Table S5).

[2] = Urine levels of TPPU and metabolites after single oral dose in rats; format: in vivo; conditions: rat, single oral dose 10 mg/kg TPPU; for Cmax: male, Sprague Dawley, urine
Method: as §1, §2, §3

[3] = as above; format: in vivo; conditions: male, Sprague Dawley, rat, single oral dose 10 mg/kg TPPU, n = 3; for concentration at 8 h: 8h post dose; for concentration at 12 h: 12h post dose; for concentration at 24 h: 24h post dose; for concentration at 48 h: 48h post dose; for concentration at 72 h: 72h post dose
[4] = biological target: T1, recombinant human sEH (Homo sapiens, UniProt P34913); experiment: sEH inhibition potency, CMNPC fluorescent assay; format: biochemical
T1 sequence (P34913 1-555): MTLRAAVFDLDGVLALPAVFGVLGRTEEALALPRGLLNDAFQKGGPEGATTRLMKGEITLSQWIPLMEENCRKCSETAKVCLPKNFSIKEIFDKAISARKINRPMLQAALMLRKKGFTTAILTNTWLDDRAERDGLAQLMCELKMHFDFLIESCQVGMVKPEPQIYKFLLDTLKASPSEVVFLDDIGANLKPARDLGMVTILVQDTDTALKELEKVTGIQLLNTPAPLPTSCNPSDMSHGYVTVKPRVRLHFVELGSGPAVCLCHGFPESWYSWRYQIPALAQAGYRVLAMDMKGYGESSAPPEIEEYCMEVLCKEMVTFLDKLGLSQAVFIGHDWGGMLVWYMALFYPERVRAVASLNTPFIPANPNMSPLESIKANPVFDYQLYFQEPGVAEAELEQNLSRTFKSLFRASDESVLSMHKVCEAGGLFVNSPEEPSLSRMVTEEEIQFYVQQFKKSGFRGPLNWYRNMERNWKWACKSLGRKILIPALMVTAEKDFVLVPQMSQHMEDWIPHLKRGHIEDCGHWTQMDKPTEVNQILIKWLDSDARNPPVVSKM
Method: Briefly, recombinant human sEH [1 nM in sodium phosphate buffer (0.1 M, pH = 7.4, 0.1 mg/mL BSA)] was incubated with each analyte (0.1 < [I]final < 10,000 nM) at 30°C for 5 min. Then, the reaction was started with the addition to CMNPC ([S]final = 5 μM). The reaction was monitored kinetically for 10 min at 30°C. The formation of the fluorescent product 6-methoxynaphthaldehyde (λexcitation = 330 nm, λemission = 465 nm, 30°C) was measured every 30 s. IC50 values were determined by regression of the remaining activity in function of the inhibitor concentrations. Assays were run in triplicate and IC50 values are the averages of three replicates.

[5] = Feces levels of TPPU and metabolites after single oral dose in rats; format: in vivo; conditions: rat, single oral dose 10 mg/kg TPPU; for concentration at 8 h: 8h post dose; for concentration at 8 h / concentration at 12 h / concentration at 24 h / concentration at 48 h / concentration at 72 h: n = 3; for concentration at 12 h: 12h post dose; for concentration at 24 h: 24h post dose; for concentration at 48 h: 48h post dose; for concentration at 72 h: 72h post dose
[6] = In vitro metabolism of TPPU in liver S9 fractions; format: in vitro ADME, human, monkey, dog, rat, mouse
Method: The in vitro study of TPPU metabolism was conducted following previous methods as described (Watanabe and Hammock, [2001]). Briefly, 1 μL of TPPU (1 mM in DMSO; [TPPU]final = 10 μM) was mixed with 94 μL of diluted liver S9 fractions (final, 0.05 mg protein/mL) from human, monkey, dog, rat, and mouse and incubations were conducted in a 10 mL glass vial. After 5 min preincubation at 37°C, the reaction was initiated by adding 5 μL of NADPH regeneration solution. The NADPH regeneration solution was prepared by mixing 50 μL of NADP^+ (100 mM), 50 μL of G6P (500 mM), 50 μL of G6PDH (100 Unit/mL), and 100 μL of sodium phosphate buffer. Incubation without NADPH regeneration solution was used as control. Reactions were kept for 2 h and terminated by addition of 100 μL of ice-cold methanol containing CUDA (200 nM) as an internal standard. The mixture was followed by vigorous mixing for 2 min and centrifuging at 10,000^*g for 10 min. Each supernatant was transferred to an HPLC vial and kept under 4°C until LC-MS analysis.
as §2

Cmax [2] | time of Cmax in urine [2] | concentration at 8 h [3] | concentration at 12 h [3] | concentration at 24 h [3] | concentration at 48 h [3] | concentration at 72 h [3] | concentration at 8 h ([5]; male, Sprague Dawley, feces) | concentration at 12 h ([5]; male, Sprague Dawley, feces) | concentration at 24 h ([5]; male, Sprague Dawley, feces) | concentration at 48 h ([5]; male, Sprague Dawley, feces) | concentration at 72 h ([5]; male, Sprague Dawley, feces) | SMILES | also measured
12000 ng/mL | 12 h | 8 ng/mL | 1.2 ng/mL | 5.6 ng/mL | 3.6 ng/mL | 2.1 ng/mL | 3.7 ng/mL | 5.7 ng/mL | 1.1 ng/mL | 8.8 ng/mL | 4.4 ng/mL | CC(O)C(=O)N1CCC(NC(=O)Nc2ccc(OC(F)(F)F)cc2)CC1 (centres unmarked) [Compound M1, 1-(1-(2-hydroxypropanoyl)piperidin-4-yl)-3-(4-(trifluoromethoxy)phenyl)urea] | half-life ([1]; male, Sprague Dawley, rat, whole blood, po, 10 mg/kg, oral gavage 10 mg/kg, n = 4, read-out: T1/2 (half-life) (converted)): ~20 h; T1/2 (half-life) ([1]; rat blood, oral gavage 10 mg/kg, n = 4, 10 mg/kg): 20 ± 3 h; share of the total TPPU-related exposure in blood ([1]; rat blood, single oral dose of TPPU, over 72 h): ~ 9.6%; IC50 ([4]; CMNPC fluorescent assay, recombinant human sEH 1 nM, 30°C, average of three replicates, read-out: HsEH IC50): 3 ± 0.5 nM; fold more potent than M2 toward human sEH ([4]; ratio of IC50 values, versus M2): ~ 5 fold; formation of metabolite in liver S9 fractions ([6]; with NADPH regeneration system, rat, mouse, dog, monkey, human, 2 h): found in all species tested; formation of metabolite in liver S9 fractions in the absence of a NADPH generation system ([6]; without NADPH, liver S9 fractions (Figure S1: human)): failed to be detected
5700 ng/mL | 8 h | 5.7 ng/mL | 5.1 ng/mL | 1.6 ng/mL | 4.6 ng/mL | 1.1 ng/mL | 1.8 ng/mL | 2.4 ng/mL | 1.9 ng/mL | 7 ng/mL | 1.5 ng/mL | CCC(=O)N1CCC(NC(=O)Nc2ccc(OC(F)(F)F)cc2)CC1 [TPPU, 1-(1-propionylpiperidin-4-yl)-3-(4-(trifluoromethoxy)phenyl)urea] | share of the TPPU nucleus in the blood ([1]; rat blood, oral 10 mg/kg TPPU): over 90%; Cmax ([5]; male, Sprague Dawley, feces): 24000 ng/mL; time of Cmax in feces [5]: 12 h; TPPU remaining after incubation with liver S9 fractions ([6]; 2 h of incubation, TPPU 10 μM, 0.05 mg protein/mL): over 90%
